Columns and labels:
A549 cells [1] = experiment: apoptosis hallmarks: DAPI stain, DNA electrophoresis, immunoblotting of caspase-3 and PARP; assay type: cell-based, human; conditions: 24 h
Method: The role of apoptosis in the sensitivity of A549 cells to IR induced by berberine was further clarified by DAPI stain. DNA extraction and electrophoresis on agarose gel were carried out as described previously (Solary E, et al. Therapie 2001; 56:511-18). After the indicated treatments, cells were fixed with 3 mL of 4% paraformaldehyde. To stain the cells, 500 μL of a 0.5 μg/mL chilled solution of DAPI (Invitrogen) stain was added and allowed to sit for 5 min. The cells were then rinsed with PBS solution and counted under a fluorescent microscope. For positive control of DNA fragmentation and DAPI stain, A549 cells were treated with 30 μM etoposide for 24 h. […] This contention was further confirmed by the lack of apoptotic DNA fragmentation and activation of caspase-3 and poly-(ADP-ribose) polymerases (PARP) as analyzed by DNA electrophoresis and immunoblotting (FIG. 3B, 3C). After the indicated treatment, the resultant supernatants were separated in 12%˜18% polyacrylamide gels. The blot was incubated with a polyclonal antibody against LC3 (gift from T. Yoshimori), PARP, caspase-3, bcl-2, beclin-1 and β-actin (Santa Cruz biotechnology, USA) for 2 h, and then with an appropriate peroxidase-conjugated secondary antibody (Sigma) for 1 h at 37° C.

A549 cells [2] = test system: A549 cells
Method: Cells were cultured in phenol-red-free medium and irradiated with a […] (Varian, 21-EX). The radiation was delivered as a single dose ranging from 2 to 8 Gy in an appropriate field size at a dose rate of 400 cGy/min. A 3-cm polystyrene block was used under the petri dishes during each irradiation to allow homogeneous backscattering radiation. Control cells were removed from the incubator and placed for the same period of time under the IR source but without radiation treatment. In the combined treatment mortality tests, berberine was added 2 h prior to irradiation.
The enhancing effect of berberine on radio-sensitivity in NSCLC was performed by treating A549 with various concentrations of berberine alone or combined with different dose of IR at 37° C. for 24 h or 48 h followed by MTT assay for cell viability analysis. Thereafter, the medium was changed and incubated with 100 μl MTT (Sigma St Louis, Mo.)/well for 4 h, which was solubilized in isopropanol, and measured spectrophotometrically at 563 nm. […] To further ascertain the effect of berberine on the lethality of IR, clonogenic survival assay was performed to examine long term survival. […] After 14 days, colonies were fixed with methanol, stained with 0.25% crystal violet, and counted if they were consisted of more than 50 cells. […]

beclin-1 = experiment: immunohistochemistry of beclin-1 in xenograft; assay type: in vivo, C57BL/6 mice; conditions: co-treatment groups (berberine + IR)
Method: The application of the additive cytotoxicity of IR combined with berberine in cancer treatment was further evidenced in an in vivo Lewis lung carcinoma (LLC) model in mice (Camphausen K, et al. Cancer Res 2001; 61:2207-11). Male C57BL/6 mice aged 4-6 weeks (National Taiwan University Animal Center, Taiwan) were used. To form a tumor xenograft, Lewis lung cells (2×10^6) were injected s.c. into the right hind limb. Animals were randomized into six groups: control, irradiation (IR) alone, berberine (1.0, 2.0 mg/kg) alone, and IR combined with berberine (1.0, 2.0 mg/kg). For tumor irradiation, mice were immobilized in a customized harness that exposed the right hind leg while shielding the remainder of the body by 3.5 cm of lead. Mice were exposed to a single dose of 8 Gy. […] To obtain tumor growth curves, three orthogonal tumor diameters were measured every 4-day intervals with a vernier caliper, and the mean values were calculated. […] Primary tumor growth delay was measured by calipers in two dimensions, and the volumes were calculated according to the formula: tumor volume=(width) 2×length×0.52. […] The tumor volume at the primary site of each group was measured before treatment, and the average tumor volume was designated as T0. When the animals were sacrificed at the end of experiment, the xenografts were removed, and the tumor volume was determined and presented as fold of T0. […]

[3] = test system: Lewis lung carcinoma (LLC); experiment: Lewis lung carcinoma (LLC) tumor xenograft growth in mice; assay type: in vivo, C57BL/6 mice; conditions: for tumor volume relative to that before the treatment: LLC in C57BL/6 mice, p<0.001
Method: The application of the additive cytotoxicity of IR combined with berberine in cancer treatment was further evidenced in an in vivo Lewis lung carcinoma (LLC) model in mice (Camphausen K, et al. Cancer Res 2001; 61:2207-11). Male C57BL/6 mice aged 4-6 weeks (National Taiwan University Animal Center, Taiwan) were used. To form a tumor xenograft, Lewis lung cells (2×10^6) were injected s.c. into the right hind limb. Animals were randomized into six groups: control, irradiation (IR) alone, berberine (1.0, 2.0 mg/kg) alone, and IR combined with berberine (1.0, 2.0 mg/kg). For tumor irradiation, mice were immobilized in a customized harness that exposed the right hind leg while shielding the remainder of the body by 3.5 cm of lead. Mice were exposed to a single dose of 8 Gy. Berberine was supplemented (1.0, 2.0 mg/kg, i.p.) to animals 1 day before the radiation exposure, and then twice a week for 4 weeks. To obtain tumor growth curves, three orthogonal tumor diameters were measured every 4-day intervals with a vernier caliper, and the mean values were calculated. The animals were killed (n=5 per group) at the indicated time points, and the primary tumor was dissected and examined. Primary tumor growth delay was measured by calipers in two dimensions, and the volumes were calculated according to the formula: tumor volume=(width) 2×length×0.52. LLC cells were injected s.c. into the right thighs of C57BL/6 mice 10 days before the IR therapy. The animals were randomized into six treatment groups: untreated, 8 Gy radiation in one dose, berberine alone (1.0, 2.0 mg/kg i.p., twice weekly), and berberine combined with IR treatment (FIG. 6A). Berberine was supplemented to the indicated groups one day before the IR treatment and continued for 4 weeks. The tumor volume at the primary site of each group was measured before treatment, and the average tumor volume was designated as T0. When the animals were sacrificed at the end of experiment, the xenografts were removed, and the tumor volume was determined and presented as fold of T0. The blood samples were collected for biochemical analysis. […] Berberine at 1.0 and 2.0 mg/kg, as used with IR, has shrunk the tumor volume down to approximately 48% and 22% of that before the treatment (FIG. 6C, p<0.001). Furthermore, immunohistochemistry was performed to detect the level of beclin-1 and bcl-2 proteins in the xenograft. Primary tumors were fixed and then embedded in paraffin. The sections were stained with anti-bcl-2 mouse-monoclonal antibody (1:100, Santa Cruz Biotechnology, Santa Cruz, Calif.) or anti-beclin-1 rabbit polyclonal antiserum (1:50, Santa Cruz Biotechnology, Santa Cruz, Calif.). The sections were then incubated with blocking buffer for 40 min at RT followed by incubation with the primary antibody over night at 4° C. […]

Compound: COc1ccc2cc3[n+](cc2c1OC)CCc1cc2c(cc1-3)OCO2 [berberine, Berberine]
- apoptotic DNA fragmentation and activation of caspase-3 and PARP (A549 cells [1]; berberine with IR, DNA electrophoresis and immunoblotting (FIG. 3B, 3C)): lack
- number of apoptotic cells (DAPI stain) (A549 cells [1]; co-treatment of berberine (>5.0 μM) with IR (6 Gy)): increased only slightly
- cell viability (A549 cells [2]; IR applied to cells incubated with berberine, 24 h and 48 h, A549 (FIG. 1B)): decreased
- combination effect on cell viability (A549 cells [2]; berberine combined with 6 Gy IR, 24 h, A549 (FIG. 1A)): conspicuous
- beclin-1 protein expression in xenograft (beclin-1): remarkable increased
- tumor volume relative to that before the treatment ([3]; berberine 1.0 mg/kg i.p. twice weekly for 4 weeks with IR 8 Gy): approximately 48%
- tumor volume relative to that before the treatment ([3]; berberine 2.0 mg/kg i.p. twice weekly for 4 weeks with IR 8 Gy): ~22%
- tumor size in tumor growth curves ([3]; berberine (1.0, 2.0 mg/kg) combined with IR 8 Gy, LLC in mice (FIG. 6B)): considerable reduced size
- growth of the xenograft ([3]; berberine alone (1.0, 2.0 mg/kg i.p., twice weekly), LLC in mice): slowed down

Reference: US20090076050A1, “SYNERGISTIC TUMOR-KILLING EFFECT OF RADIATION AND BERBERINE COMBINED TREATMENT IN LUNG CANCER” (CHUNG SHAN MEDICAL U., priority 2007, published 2009)
